This is an account of results in US20060045905A1, “Composition for repressing transformation growth factor beta” (Taiyokagaku Co., Ltd., priority 2004, published 2006).

In the data set the test system is mice. Type of data set: in vivo. The conditions noted are these: oral administration of theanine by 5 g/kg. The text has this:
Theanine used in the invention has a high security. […] Furthermore, theanine is known as a principal component of deliciousness of tea and used as a food additive for use as gustatory. An amount of theanine to be added is not limited under the Food Sanitation Law. Moreover, differing from conventional medical substances, theanine has no adverse side effect. Consequently, the composition of the invention can be used as a safe and effective composition for repressing TGF-β.

Structures are written as SMILES.

With `CCNC(=O)CC[C@H](N)C(=O)O` [theanine, L-theanine], the “mortality in acute toxicity test” value is on record as “no mice died”.
